Measurements as given in EP2269977B1, “Inhibitors of the 11-beta-hydroxysteroid dehydrogenase Type 1 enzyme” (AbbVie Inc., priority 2005, dated 2006).

Experiments:
[1] = Metabolic stability screen in human liver microsomes; format: in vitro ADME; details: substrate 10 µM, microsomal protein 0.1- 0.5 mg/ml, 1mM NADPH, pH 7.4, 37°C, 30 min incubation, LC/MS, read-out: Human Liver Microsomal Turnover
Method: (§1) Metabolic stability screen: each substrate (10 µM) was incubated with microsomal protein (0.1- 0.5 mg/ml) in 50mM potassium phosphate buffer (pH 7.4) in 48-Well plate. The enzyme reaction was initiated by the addition of 1mM NADPH, then incubated at 37°C in a Forma Scientific incubator (Marietta, OH, USA) with gentle shaking. The reactions were quenched by the addition of 800 µl of ACN/MeOH (1:1, v/v), containing 0.5 µM of internal standard (IS), after 30 min incubation. Samples were then filtered by using Captiva 96-Well Filtration (Varian, Lake Forest, CA, USA) and analyzed by LC/MS (mass spectrometry). Liver microsomal incubations were conducted in duplicate.
(§2) The parent remaining in the incubation mixture was determined by LC/MS. […] A Luna C8(2) (50 x 2.0 mm, particle size 3 µm, Phenomenex, Torrance, CA, USA) was used to quantify each compound at ambient temperature. […]
(§3) The peak area ratios (each substrate over IS) at each incubation time were expressed as the percentage of the ratios (each substrate over IS) of the control samples (0 min incubation). The parent remaining in the incubation mixture was expressed as the percentage of the values at 0 min incubation. The percentage turnover is calculated using the following equation (%turnover =[…] - %parent remaining) and is recorded as the percentage turnover in the Table 2. […]

[2] = Metabolic stability screen in mouse liver microsomes; format: in vitro ADME; details: substrate 10 µM, microsomal protein 0.1- 0.5 mg/ml, 1mM NADPH, pH 7.4, 37°C, 30 min incubation, LC/MS, read-out: Mouse Liver Microsomal Turnover
Method: as §1, §2, §3

Work on `CC(C)(Oc1ccc(Cl)cc1)C(=O)NC1C2CC3CC(C2)CC1C3` (centres unmarked) [EE, N-adamantan-2-yl-2-(4-chloro-phenoxy)-2-methyl-propionamide] yielded a metabolised at 0.5 h, 10 µM [1] of 88% and a metabolised at 0.5 h, 10 µM [2] of 86%.
